According to ChEMBL document CHEMBL1145283, “3-hydroxymethyl-7-(N-substituted aminosulfonyl)-1,2,3,4-tetrahydroisoquinoline inhibitors of phenylethanolamine N-methyltransferase that display remarkable potency and selectivity” (J Med Chem, 2005):

Molecular target: T1, Adrenergic receptor alpha-2 (Rattus norvegicus, UniProt P22086+P19328+P22909)
T1 sequence (P22086 whole entry): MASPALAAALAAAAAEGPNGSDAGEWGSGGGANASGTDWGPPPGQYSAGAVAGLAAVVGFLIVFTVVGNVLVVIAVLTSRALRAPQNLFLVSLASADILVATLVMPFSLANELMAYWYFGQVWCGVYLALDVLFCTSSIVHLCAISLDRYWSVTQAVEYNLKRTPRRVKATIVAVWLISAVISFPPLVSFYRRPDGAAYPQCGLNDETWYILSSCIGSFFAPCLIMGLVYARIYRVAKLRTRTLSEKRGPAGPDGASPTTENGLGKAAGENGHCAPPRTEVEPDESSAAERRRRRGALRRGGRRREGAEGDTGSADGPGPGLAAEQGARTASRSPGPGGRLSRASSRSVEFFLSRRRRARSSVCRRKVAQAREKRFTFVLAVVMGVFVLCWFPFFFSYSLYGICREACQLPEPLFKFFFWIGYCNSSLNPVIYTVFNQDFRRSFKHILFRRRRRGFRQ
T1 sequence (P19328 whole entry): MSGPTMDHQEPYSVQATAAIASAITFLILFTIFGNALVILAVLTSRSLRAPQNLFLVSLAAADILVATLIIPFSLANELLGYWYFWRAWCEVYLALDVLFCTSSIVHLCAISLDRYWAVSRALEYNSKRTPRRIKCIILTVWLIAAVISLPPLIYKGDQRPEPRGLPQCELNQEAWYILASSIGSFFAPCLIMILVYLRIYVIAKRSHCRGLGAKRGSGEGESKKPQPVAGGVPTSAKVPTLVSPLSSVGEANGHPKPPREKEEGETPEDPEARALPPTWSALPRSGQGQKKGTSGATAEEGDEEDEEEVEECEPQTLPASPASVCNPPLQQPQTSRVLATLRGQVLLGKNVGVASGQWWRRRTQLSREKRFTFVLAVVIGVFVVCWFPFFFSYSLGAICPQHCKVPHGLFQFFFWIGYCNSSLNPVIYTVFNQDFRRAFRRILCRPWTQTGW
T1 sequence (P22909 whole entry): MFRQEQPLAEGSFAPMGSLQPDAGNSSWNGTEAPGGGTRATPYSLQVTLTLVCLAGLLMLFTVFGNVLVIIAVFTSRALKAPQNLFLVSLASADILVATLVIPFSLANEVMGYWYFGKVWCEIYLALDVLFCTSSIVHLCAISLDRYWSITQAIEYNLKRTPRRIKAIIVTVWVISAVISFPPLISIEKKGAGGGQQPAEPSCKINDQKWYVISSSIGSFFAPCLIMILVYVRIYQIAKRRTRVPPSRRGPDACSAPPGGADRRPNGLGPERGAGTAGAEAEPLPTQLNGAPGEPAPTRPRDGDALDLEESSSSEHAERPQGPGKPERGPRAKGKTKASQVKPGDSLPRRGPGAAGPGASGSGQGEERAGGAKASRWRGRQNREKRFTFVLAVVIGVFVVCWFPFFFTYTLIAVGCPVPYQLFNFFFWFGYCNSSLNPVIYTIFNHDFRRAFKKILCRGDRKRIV
Experiment: In vitro inhibition of [3H]clonidine from alpha-2 adrenergic receptor of rat cortex

Row | SMILES | Ki
1 | O=S(=O)(c1ccc2c(c1)CNC(CO)C2)N1CCSCC1 (stereo not given) | 320 µM
2 | CCCNS(=O)(=O)c1ccc2c(c1)CNC(CO)C2 (stereo not given) | 230 µM
3 | O=S(=O)(Nc1ccc(Cl)cc1)c1ccc2c(c1)CNC(CO)C2 (stereo not given) | 53 µM
4 | CCNS(=O)(=O)c1ccc2c(c1)CNC(CO)C2 (stereo not given) | 210 µM
5 | O=S(=O)(NCC(F)(F)F)c1ccc2c(c1)CNC(CO)C2 (stereo not given) | 340 µM
